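Values below derive from 48-hour exposures of cells grown in 96-well plates, with endpoints linearly interpolated between the two concentrations bracketing the appropriate inhibition level. Definition used: TGI = concentration required for complete inhibition of growth.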
Legend:
Assay in all cases: inhibition of tumour cell growth, NCI panel, 48 h
OVCAR-8 ovarian = tested on: OVCAR-8 ovarian
DU-145 prostate = tested on: DU-145 prostate
CAKI-1 renal = tested on: CAKI-1 renal
RPMI-8226 leukemia = tested on: RPMI-8226 leukemia
K-562 leukemia = tested on: K-562 leukemia
UACC-257 melanoma = tested on: UACC-257 melanoma
786-0 renal = tested on: 786-0 renal
SK-MEL-2 melanoma = tested on: SK-MEL-2 melanoma
MOLT-4 leukemia = tested on: MOLT-4 leukemia
NCI-H522 lung = tested on: NCI-H522 lung
MDA-MB-435 = tested on: MDA-MB-435
COLO 205 colon = tested on: COLO 205 colon
SN12C renal = tested on: SN12C renal
A498 renal = tested on: A498 renal
UACC-62 melanoma = tested on: UACC-62 melanoma
ACHN renal = tested on: ACHN renal
HOP-92 NSCLC = tested on: HOP-92 NSCLC
SR leukemia = tested on: SR leukemia
U251 CNS = tested on: U251 CNS
CCRF-CEM leukemia = tested on: CCRF-CEM leukemia
T-47D breast = tested on: T-47D breast
SF-268 CNS = tested on: SF-268 CNS
OVCAR-5 ovarian = tested on: OVCAR-5 ovarian
PC-3 prostate = tested on: PC-3 prostate
SNB-19 CNS = tested on: SNB-19 CNS
HCT-116 colon = tested on: HCT-116 colon
A549 NSCLC = tested on: A549 NSCLC
M14 melanoma = tested on: M14 melanoma
EKVX NSCLC = tested on: EKVX NSCLC
SF-539 CNS = tested on: SF-539 CNS
TK-10 renal = tested on: TK-10 renal
HCT-15 colon = tested on: HCT-15 colon
BT-549 breast = tested on: BT-549 breast
HS 578T breast = tested on: HS 578T breast
SF-295 CNS = tested on: SF-295 CNS
LOX IMVI melanoma = tested on: LOX IMVI melanoma
IGROV1 ovarian = tested on: IGROV1 ovarian
MDA-MB-231 breast = tested on: MDA-MB-231 breast
HL-60(TB) leukemia = tested on: HL-60(TB) leukemia
SNB-75 CNS = tested on: SNB-75 CNS
NCI-H23 lung = tested on: NCI-H23 lung
SW-620 colon = tested on: SW-620 colon
OVCAR-4 ovarian = tested on: OVCAR-4 ovarian
MCF7 breast = tested on: MCF7 breast
NCI/ADR-RES ovarian = tested on: NCI/ADR-RES ovarian
UO-31 renal = tested on: UO-31 renal
KM12 colon = tested on: KM12 colon
SK-MEL-5 melanoma = tested on: SK-MEL-5 melanoma
NCI-H460 lung = tested on: NCI-H460 lung
SK-OV-3 ovarian = tested on: SK-OV-3 ovarian
OVCAR-3 ovarian = tested on: OVCAR-3 ovarian
MDA-N = tested on: MDA-N
HT29 colon = tested on: HT29 colon
HOP-62 NSCLC = tested on: HOP-62 NSCLC
RXF 393 renal = tested on: RXF 393 renal
NCI-H226 lung = tested on: NCI-H226 lung
HCC-2998 colon = tested on: HCC-2998 colon
MALME-3M melanoma = tested on: MALME-3M melanoma
SK-MEL-28 melanoma = tested on: SK-MEL-28 melanoma

Measured: TGI

O=C(Cn1nnc(-c2ccccc2)n1)N/N=C/c1cn(Cc2ccc(Cl)cc2Cl)c2ccccc12
not listed: RXF 393 renal | NCI-H226 lung | HCC-2998 colon | MALME-3M melanoma | SK-MEL-28 melanoma
> 100 µM: all other assays above

CCOC(=O)N1CCC2(CC1)CC(=O)N(Nc1ccccc1)C2=O
not listed: NCI-H522 lung
> 100 µM: all other assays above

Cc1ccc(NN=NCCCCN=NNc2ccc(C)cc2)cc1
2.1 µM: UO-31 renal
81.2 µM: NCI-H23 lung
17.9 µM: TK-10 renal
30.3 µM: HL-60(TB) leukemia
98.4 µM: CCRF-CEM leukemia
not listed: RPMI-8226 leukemia | 786-0 renal | NCI-H522 lung | ACHN renal | SNB-19 CNS | KM12 colon
> 100 µM: all other assays above

NC(N)=NCCCC(NC(=O)OCCCCCn1ccc(N)nc1=O)C(=O)O (stereo unspecified)
not listed: NCI-H522 lung | SK-MEL-5 melanoma | MALME-3M melanoma
> 100 µM: all other assays above

CC(C)N(C(=O)C12C3(C(=O)OC(C)(C)C)C4C5(C#N)C3C1(C(=O)OC(C)(C)C)C5C42C(=O)OC(C)(C)C)C(C)C (stereo unspecified)
41.8 µM: SNB-75 CNS
40.1 µM: MOLT-4 leukemia
69.6 µM: SR leukemia
30.9 µM: CCRF-CEM leukemia
73.5 µM: HCT-116 colon
43.9 µM: MCF7 breast
29 µM: LOX IMVI melanoma
not listed: RPMI-8226 leukemia | SK-OV-3 ovarian | NCI-H226 lung | MALME-3M melanoma
> 100 µM: all other assays above

From PubChem BioAssay (NCI)
